Where “and” joins values, the source holds several entries; their conditions need not be identical. Equal values may be shown once. Toxic doses and inconclusive results are not listed. Cut-off read from the data, not from the text of the source: active = T/C of 150% or more; inactive = T/C below 125%.
Test system: L1210 leukemia ip in BDF1 mice, survival T/C
Assay: NCI In Vivo Anticancer Drug Screen. Data for tumor model L1210 Leukemia (intraperitoneal) in B6D2F1 (BDF1) mice
Details: endpoint: mean survival time, higher = longer survival
Procedure, shortened: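 Ratio derived from survival: compound-dosed mice over vehicle-dosed mice, all bearing a transplantable tumor.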

[1] = dose: 100.0 mg/kg/injection, schedule: Q01DX001 (ip), vehicle: saline
[2] = dose: 200.0 mg/kg/injection, schedule: Q01DX001 (ip), vehicle: saline
[3] = dose: 400.0 mg/kg/injection, schedule: Q01DX001 (ip), vehicle: saline
[4] = dose: 100.0 mg/kg/injection, schedule: Q04DX003 (ip), vehicle: saline with Tween-80
[5] = dose: 200.0 mg/kg/injection, schedule: Q04DX003 (ip), vehicle: saline with Tween-80
[6] = dose: 400.0 mg/kg/injection, schedule: Q04DX003 (ip), vehicle: saline with Tween-80
[7] = dose: 100.0 mg/kg/injection, schedule: Q01DX009 (ip), vehicle: Klucel (hydroxypropylcellulose) (HPC)
[8] = dose: 200.0 mg/kg/injection, schedule: Q01DX009 (ip), vehicle: Klucel (hydroxypropylcellulose) (HPC)
[9] = dose: 400.0 mg/kg/injection, schedule: Q01DX009 (ip), vehicle: Klucel (hydroxypropylcellulose) (HPC)

Measured: T/C

N#CC(O)C1(O)CCCCC1 (stereo unspecified)
inactive: dose: 6.25 mg/kg/injection, schedule: Q04DX003 (ip), vehicle: saline sonified 101 % of control | dose: 12.5 mg/kg/injection, schedule: Q04DX003 (ip), vehicle: saline sonified 101 % of control | dose: 25.0 mg/kg/injection, schedule: Q04DX003 (ip), vehicle: saline sonified 94 % of control

Cc1cc(C)c(O)c(N=O)c1.[Cu+2]
inactive: dose: 50.0 mg/kg/injection, schedule: Q01DX001 (ip), vehicle: saline 101 % of control | [1] 97 % of control | [2] 101 % of control | [3] 97 % of control

O=[As](O)(O)c1ccc(Cl)cc1C(F)(F)F
inactive: dose: 6.25 mg/kg/injection, schedule: Q04DX003 (ip), vehicle: Klucel (hydroxypropylcellulose) (HPC) 97 % of control | dose: 12.5 mg/kg/injection, schedule: Q04DX003 (ip), vehicle: Klucel (hydroxypropylcellulose) (HPC) 100 % of control | dose: 25.0 mg/kg/injection, schedule: Q04DX003 (ip), vehicle: Klucel (hydroxypropylcellulose) (HPC) 101 % of control and 103 % of control | dose: 100.0 mg/kg/injection, schedule: Q04DX003 (ip), vehicle: Klucel (hydroxypropylcellulose) (HPC) 101 % of control | dose: 200.0 mg/kg/injection, schedule: Q04DX003 (ip), vehicle: Klucel (hydroxypropylcellulose) (HPC) 103 % of control

CCOP(=O)(Nc1c(Cl)cc2c(c1Cl)Cc1cc([N+](=O)[O-])ccc1-2)OCC
inactive: dose: 50.0 mg/kg/injection, schedule: Q01DX001 (ip), vehicle: carboxymethylcellulose (CMC) 103 % of control | dose: 100.0 mg/kg/injection, schedule: Q01DX001 (ip), vehicle: carboxymethylcellulose (CMC) 100 % of control | dose: 200.0 mg/kg/injection, schedule: Q01DX001 (ip), vehicle: carboxymethylcellulose (CMC) 100 % of control | dose: 400.0 mg/kg/injection, schedule: Q01DX001 (ip), vehicle: carboxymethylcellulose (CMC) 103 % of control

NC(=O)NC1CCCC1
inactive: [4] 93 % of control | [5] 89 % of control | [6] 93 % of control

Cc1c(C)c(O)c2c(c1C)C(C)C(=O)OC2=O (stereo unspecified)
inactive: dose: 5.0 mg/kg/injection, schedule: Q01DX001 (ip), vehicle: saline 104 % of control | dose: 10.0 mg/kg/injection, schedule: Q01DX001 (ip), vehicle: saline 100 % of control | dose: 20.0 mg/kg/injection, schedule: Q01DX001 (ip), vehicle: saline 92 % of control | dose: 40.0 mg/kg/injection, schedule: Q01DX001 (ip), vehicle: saline 97 % of control

CCOC(=O)/C=C(\CC(=O)OCC)Nc1ccc(C(=O)c2ccccc2)cc1
inactive: [2] 89 % of control

O=C(Nc1ccc2ccccc2c1)c1ccc(F)cc1
inactive: [7] 97 % of control | [8] 102 % of control | [9] 94 % of control

Cc1c2ccn(O)cc2cc2c1nc1ccccc12
inactive: dose: 18.75 mg/kg/injection, schedule: Q01DX009 (ip), vehicle: other 116 % of control | dose: 37.5 mg/kg/injection, schedule: Q01DX009 (ip), vehicle: other 114 % of control | dose: 75.0 mg/kg/injection, schedule: Q01DX009 (ip), vehicle: other 112 % of control | dose: 150.0 mg/kg/injection, schedule: Q01DX009 (ip), vehicle: other 110 % of control

COc1cc(/C=N/NC(=O)CNC(=O)c2ccc(Cl)cc2Cl)ccc1O
inactive: dose: 50.0 mg/kg/injection, schedule: Q01DX009 (ip), vehicle: saline with Tween-80 91 % of control | dose: 100.0 mg/kg/injection, schedule: Q01DX009 (ip), vehicle: saline with Tween-80 86 % of control | dose: 200.0 mg/kg/injection, schedule: Q01DX009 (ip), vehicle: saline with Tween-80 88 % of control

O=C(O)/C=C/C(=O)Nc1ccc(F)cc1F
inactive: [4] 100 % of control | [5] 100 % of control | [6] 107 % of control

CC(CO)(C(=O)O)c1ccccc1 (stereo unspecified)
inactive: dose: 55.0 mg/kg/injection, schedule: Q01DX Z (ip), vehicle: saline 103 % of control | dose: 83.0 mg/kg/injection, schedule: Q01DX Z (ip), vehicle: saline 96 % of control | dose: 125.0 mg/kg/injection, schedule: Q01DX Z (ip), vehicle: saline 94 % of control

CC1CC(CC(=O)O)(C(=O)O)CC(C)O1 (stereo unspecified)
inactive: dose: 100.0 mg/kg/injection, schedule: Q01DX001 (ip), vehicle: Klucel (hydroxypropylcellulose) (HPC) 105 % of control | [4] 90 % of control | dose: 200.0 mg/kg/injection, schedule: Q01DX001 (ip), vehicle: Klucel (hydroxypropylcellulose) (HPC) 97 % of control | [5] 101 % of control | dose: 400.0 mg/kg/injection, schedule: Q01DX001 (ip), vehicle: Klucel (hydroxypropylcellulose) (HPC) 92 % of control | [6] 95 % of control

CC(C)CN(CC(C)C)c1ccc([N+](=O)[O-])cc1[N+](=O)[O-]
inactive: [4] 94 % of control | [5] 98 % of control | [6] 96 % of control

COc1ccc2c(c1OC(C)=O)-c1cc(OC(C)=O)cc3c1C(C2)N(C)CC3 (stereo unspecified)
inactive: dose: 25.0 mg/kg/injection, schedule: Q04DX003 (ip), vehicle: DMSO 93 % of control | dose: 50.0 mg/kg/injection, schedule: Q04DX003 (ip), vehicle: DMSO 95 % of control | dose: 100.0 mg/kg/injection, schedule: Q04DX003 (ip), vehicle: DMSO 106 % of control

O=S(=O)(O)C(O)CC(c1ccccc1)S(=O)(=O)O (stereo unspecified)
inactive: dose: 100.0 mg/kg/injection, schedule: Q04DX002 (ip), vehicle: Klucel (hydroxypropylcellulose) (HPC) 106 % of control | dose: 400.0 mg/kg/injection, schedule: Q04DX002 (ip), vehicle: Klucel (hydroxypropylcellulose) (HPC) 98 % of control

CCCN(C(=O)N([Si](C)(C)C)S(=O)(=O)c1ccc(Cl)cc1)[Si](C)(C)C
inactive: dose: 50.0 mg/kg/injection, schedule: Q01DX009 (ip), vehicle: saline 103 % of control | dose: 100.0 mg/kg/injection, schedule: Q01DX009 (ip), vehicle: saline 96 % of control

COc1ccc(C(SCC(NC(=O)OCc2ccccc2)C(=O)O)c2ccc(OC)cc2)cc1 (stereo unspecified)
inactive: dose: 75.0 mg/kg/injection, schedule: Q01DX001 (ip), vehicle: carboxymethylcellulose (CMC) 91 % of control | dose: 150.0 mg/kg/injection, schedule: Q01DX001 (ip), vehicle: carboxymethylcellulose (CMC) 91 % of control | dose: 300.0 mg/kg/injection, schedule: Q01DX001 (ip), vehicle: carboxymethylcellulose (CMC) 89 % of control

CC[CH2][Sn]([Cl])([Cl])[CH2]CC.Oc1ccccc1C=NCCN=Cc1ccccc1O
inactive: dose: 2.5 mg/kg/injection, schedule: Q01DX009 (ip), vehicle: saline with Tween-80 101 % of control and 109 % of control | dose: 5.0 mg/kg/injection, schedule: Q01DX009 (ip), vehicle: saline with Tween-80 113 % of control | dose: 6.6 mg/kg/injection, schedule: Q01DX009 (ip), vehicle: saline with Tween-80 87 % of control

NC(=O)c1ccc[n+](Cc2c(Cl)cccc2Cl)c1
inactive: dose: 1.56 mg/kg/injection, schedule: Q01DX009 (ip), vehicle: saline 111 % of control | dose: 3.12 mg/kg/injection, schedule: Q01DX009 (ip), vehicle: saline 122 % of control | dose: 6.25 mg/kg/injection, schedule: Q01DX009 (ip), vehicle: saline 122 % of control

COc1ccc(-c2cc(C(=O)O)c3cc4ccccc4cc3n2)cc1Br
inactive: [7] 107 % of control | [8] 93 % of control | [9] 105 % of control

CCOC(=O)c1ccccc1N(O)C(=O)Nc1ccc(Cl)cc1
inactive: [4] 100 % of control | [5] 105 % of control | [6] 103 % of control

CN(CCO)C(c1ccccc1)c1ccccc1
inactive: [1] 100 % of control | [2] 94 % of control | [3] 103 % of control

CNC(=S)c1ccc(Cl)cc1
inactive: dose: 12.5 mg/kg/injection, schedule: Q01DX009 (ip), vehicle: Klucel (hydroxypropylcellulose) (HPC) 96 % of control | dose: 25.0 mg/kg/injection, schedule: Q01DX009 (ip), vehicle: Klucel (hydroxypropylcellulose) (HPC) 94 % of control

— PubChem BioAssay AID248 (DTP/NCI, 2004)
